# Where a name gives a salt, the structure may show the parent alone.
# Tests used:
# eNOS = eNOS (Homo sapiens, UniProt P29474); assay: Cell-free eNOS activity assay reconstituted from purified components; type: biochemical; settings: 1, 10, 100 μM, 90 minutes at 37° C., nitrite by DAN fluorescence
# Procedure: Also tested was the effect of BH4 analogs compared to free BH4 on stimulation of eNOS activity in a cell-free assay system reconstituted from purified components. 90 μL of reaction mixture (25 mM Tris-HCL, pH7.4, 1 μM FAD, 1 μM FMN, 100 μM L-Arginine, 2.5 mM CaCl2, 1 mM NADPH, 0.04 mg/ml Calmodulin) was mixed with 5 μl of eNOS (15 units/ml) and 5 μl of BH4 or BH4 analogs (1, 10, 100 μM), followed by incubation in a 37° C. water bath for 90 minutes. Then 100 μl of water and 20 μl of the nitrite fluorescent probe DAN (2,3-diaminonaphthalene, 316 μM) were added to each reaction and incubated at room temperature for 10 minutes. The dye DAN reacts with nitrite to yield the fluorescent product naphthotriazole. The reaction was then stopped by adding 10 μl of NaOH (2.8 M), and the fluorescence of the samples was read using excitation frequency 375 nm and emission frequency 415 nm.
# [1] = Pharmacokinetics and bioavailability, single intravenous or oral doses, partial Latin square crossover; type: in vivo, male cynomolgus monkeys; settings: male, cynomolgus monkey, plasma; intravenous; title 5 mg/kg, text 2 mg/kg; n=6
# [2] = system: human umbilical vein endothelial cells (HUVEC); assay: Nitric oxide production (nitrite+nitrate) in NAS-treated HUVEC; type: cell-based; settings: 5-22 hours treatment
# Procedure: Cultured human umbilical vein endothelial cells (HUVEC) were pretreated with 3 mM N-acetylserotonin (NAS), an inhibitor of the enzyme sepiapterin reductase. Inhibition of this pathway typically results in loss of endogenous BH4, depressing the endogenous eNOS activity far below normal and provides an assay to test for restoration of eNOS activity.
# Thus, subconfluent HUVECs were seeded in a 24-well plate and grown overnight in EGM2 medium (full growth medium). The next morning, fresh medium was added to the cells (300 μL/well), 3 mM N-acetylserotonin (NAS), an inhibitor of the enzyme sepiapterin reductase (a member of the synthesis pathway for endogenous BH4) was added to the cells to decrease the endogenous BH4 levels. After an incubation of 1.5 hours, 50, 100, or […] BH4 or compound of Example 5, Example 6, Example 7, or Example 9 were added to the cells. The cells were allowed to react with the BH4 or the compound of Example 5, Example 7, or Example 9 for 5-22 hours. The production of NO was then measured as changes in total (nitrite+nitrate) by the Griess reaction subsequent to nitrate reductase treatment. 90 μL of reaction mixture (25 mM Tris-HCL, pH7.4, 1 μM FAD, 1 μM FMN, 100 μM L-Arginin 2.5 mM CaCl2, 1 mM NADPH, 0.04 mg/ml Calmodulin) was mixed with 5 μl of eNOS (15 units/ml) and 5 μl of BH4 or BH4 analogs (1, 10, 100 μM), followed by incubation in a 37° C. water bath for 90 minutes. Then 100 μl of water and 20 μl of the nitrite fluorescent probe DAN (2,3-diaminonaphthalene, 316 μM) were added to each reaction and incubated at room temperature for 10 minutes. The dye DAN reacts with nitrite to yield the fluorescent product naphthotriazole. The reaction was then stopped by adding 10 μl of NaOH (2.8 M), and the fluorescence of the samples was read using excitation frequency 375 nm and emission frequency 415 nm. The percentage of nitrite+nitrate with BH4 or compound of Example 5, Example 7, or Example 9 is shown in FIG. 17 (after 5 hours); FIG. 18 (after 17 hours); and FIG. 19 (after 22 hours). The results for Example 6 are shown in FIG. 20 (after 5 hours) and FIG. 21 (after 20 hours).
# [3] = system: Spontaneously Hypertensive rats (SHR); assay: Anti-hypertensive effect, tail-cuff systolic blood pressure in SHR; type: in vivo, rat; settings: SHR; for decrease in systolic blood pressure (SBP): 3 weeks
# Procedure: This study was to determine if the BH4 analogs have a similar hypotensive effect and to determine the steady state pharmacokinetics (PK) profiles of plasma BH4 concentrations.
# Male Wistar-Kyoto (WKY) rats and SHR rats (Elevage Janvier, France, 7 weeks old) were housed seven days prior to the beginning of experiments with free access to standard chow and water and maintained on an inversed 12 h dark/light cycle (10:00/22:00). After a one week acclimation period, the animals were trained to the tail-cuff system during one week (3 sessions). The following week, two baseline measurements of blood pressure were performed.
# The rats (10 weeks old) then received respective treatments of water, vehicle, 2, 10, or 30 mg/kg/day of BH4 analog (Example 5, Val-BH4) or 100 mg/kg/day BH4 by oral gavage (8 mL/kg, dissolved in 100 μM ascorbic acid) performed once a day during 21 days of treatment. The doses of BH4 analog were prepared as mg/kg equivalents of BH4 (calculated using BH4 and BH4 analog 2HCl molecular weights). Body weight was monitored 3 times per week and the most recent body weight was used to adjust drug and vehicle daily intake. Seven experimental groups of rats were evaluated: Group 1—normotensive WKY rats and water gavage; Group 2—hypertensive SHR rats and water gavage; Group 3—hypertensive SHR rats and vehicle gavage; Group 4—hypertensive SHR rats and BH4 100 mg/kg/day gavage; Group 5—hypertensive SHR rats and BH4 analog 2 mg/kg/day gavage; Group 6—hypertensive SHR rats and BH4 analog 10 mg/kg/day gavage; Group 7—hypertensive SHR rats and 30 mg/kg/day BH4 analog gavage. To account for animal loss or animal disqualification during experimental handling, 10 rats were used in each group, with the expectation to obtain interpretable results for at least 8. Systolic blood pressure (SBP) and heart rate (HR) were measured twice weekly during the 3-week treatment period.
# Systolic blood pressure (SBP) and heart rate (HR) were measured using the tail-cuff method, twice before the beginning of the treatment and twice weekly during the 3 week treatment period (6 measurements during the treatment period). Rats were placed in a plastic restraint and warmed to […]. A pneumatic pulse sensor was attached to the tail. After cuff inflation, SBP was measured and HR was determined by counting pulse numbers per minute. Data for each rat was taken an average of at least 4 stable readings. At least 10 cuff inflations were performed for each BP measurement.
structure (smiles),measurement,setting,value
"CC(C)[C@H](N)C(=O)O[C@@H](C)[C@H](O)[C@H]1CNc2nc(N)[nH]c(=O)c2N1 [Example 5, 2-Amino-3-methyl-butyric acid 2-(2-amino-4-oxo-3,4,5,6,7,8-hexahydro-pteridin-6-yl)-2-hydroxy-1-methyl-ethyl ester dihydrochloride]",potentiation of eNOS activity,eNOS,did not significantly potentiate eNOS activity
same,AUC(0-inf),[1],5.24 µM·h
same,AUC(0-t),[1],4.17 µM·h
same,Cmax,[1],13.1 µM
same,Tmax,[1],4.8 min
same,NO production (nitrite+nitrate),[2],increased NO production in a dose-dependent manner
same,decrease in systolic blood pressure (SBP),[3]; 2 mg/kg/day oral gavage (BH4 equivalents),6.8 mmHg
same,decrease in SBP compared with BH4 100 mg/kg,"[3]; 10 mg/kg/day during 3 weeks, FIG. 31",decreased SBP to the same extent as a 10-fold greater dose of BH4
same,decrease in systolic blood pressure (SBP),[3]; 10 mg/kg/day oral gavage (BH4 equivalents),13.9 mmHg
same,decrease in systolic blood pressure (SBP),[3]; 30 mg/kg/day oral gavage (BH4 equivalents),13.7 mmHg

# Reference: patent US7601717B2, “Pterin analogs” (BioMarin Pharmaceutical Inc., priority 2008, dated 2009)
